One data set addresses T1, TrpR variant O1 (Escherichia coli, UniProt P0A881, A80R/G78N/I79W/K72S/T83K).
T1 construct: trpR (O1); expressed in transfected cells; host or cells: E. coli Nissle 1917 (EcN), genomic trpR knocked out; plasmid pMBA173 (P17-trpR(O1))
The experiment in a line: TrpR O1 variant with synthetic Ptrp promoter, repression of GFP expression. Format: cell-based, E. coli. The text has this:
(§1) Among the various aspects of the present disclosure is the provision of systems and methods for detecting aromatic compounds. An aspect of the present disclosure provides for a method of protein engineering (e.g., a regulator protein) comprising: mutagenizing specific amino acids in and around a ligand-binding site of a protein, wherein the mutagenizing enables changes in ligand-protein binding specificity while maintaining protein-DNA interaction and thus downstream gene expression control; and/or linking ligand-protein binding to output response. An aspect of the present disclosure provides for an engineered molecular sensor. […] In some embodiments, the engineered regulator protein or the ligand-protein binding site or a sequence encoding the engineered regulator protein or the ligand-protein binding site of the engineered regulator protein is at least about 80% identical to a WT regulator protein or a WT regulator ligand-protein binding site; or a sequence encoding the engineered regulator protein or ligand binding site thereof is at least about 80% identical to a sequence encoding the WT regulator protein or the WT regulator ligand-protein binding site; or functional fragment thereof, the engineered regulator protein having ligand binding activity. […]

Another data set deals with T2, TrpR variant OD (Escherichia coli, UniProt P0A881, A80L/G78C/I79C/K72S/T83R).
T2 construct: trpR (OD); expressed in transfected cells; host or cells: E. coli Nissle 1917 (EcN), genomic trpR knocked out; plasmid pMBA103 (P17-trpR(OD))
As to the kind of experiment: TrpR OD variant with synthetic Ptrp promoter, repression of GFP expression. Type of data set: cell-based, E. coli.
Excerpt: as §1

The next data set deals with T3, WT TrpR (Escherichia coli, UniProt P0A881).
T3 construct: trpR (WT); expressed in transfected cells; host or cells: E. coli Nissle 1917 (EcN), genomic trpR knocked out; plasmid pMBA035 (P17-trpR)
The experiment in a line: WT TrpR system, repression of GFP expression. Format: cell-based, E. coli. The text has this: Among the various aspects of the present disclosure is the provision of systems and methods for detecting aromatic compounds. An aspect of the present disclosure provides for a method of protein engineering (e.g., a regulator protein) comprising: mutagenizing specific amino acids in and around a ligand-binding site of a protein, wherein the mutagenizing enables changes in ligand-protein binding specificity while maintaining protein-DNA interaction and thus downstream gene expression control; and/or linking ligand-protein binding to output response. An aspect of the present disclosure provides for an engineered molecular sensor. […] In some embodiments, the engineered regulator protein or the ligand-protein binding site or a sequence encoding the engineered regulator protein or the ligand-protein binding site of the engineered regulator protein is at least about 80% identical to a WT regulator protein or a WT regulator ligand-protein binding site; or a sequence encoding the engineered regulator protein or ligand binding site thereof is at least about 80% identical to a sequence encoding the WT regulator protein or the WT regulator ligand-protein binding site; or functional fragment thereof, the engineered regulator protein having ligand binding activity. In some embodiments, the engineered molecular sensor is optionally genomically integrated into a microorganism, optionally selected from a probiotic or is a purified cell-free sensor. In some embodiments, the engineered regulator protein or enzyme is an engineered TrpR, TyrR, TynA, or FeaR protein. […] In some embodiments, the engineered regulator protein is an engineered TrpR and is a tryptophan (Trp)-, 5-hydroxytryptophan (5-HTP)-, or tryptamine (Trpta)-specific sensor. In some embodiments, the engineered regulator protein or enzyme is an engineered TrpR, TyrR, TynA, or FeaR, and/or wherein the engineered TrpR, TyrR, TynA, or FeaR comprises at least one mutation to a ligand-protein binding site having specific amino acid binding activity. […]

The conditions of data set [1]: Sauerkraut, safe limit; cited from earlier work.
Data set [2] has as its system wild-type TynA with M83N FeaR. The experiment in a line: PtynA-GFP reporter, wild-type TynA with M83N FeaR (pCX073). As to conditions: pCX008, pCX073, FIG. 6E, 24 h. Format: cell-based, E. coli MG1655. As for the experimental part:
(§2) Flow cytometry was performed as previously described. […] Cytometry data was gated by forward and side scatter.

A further data set concerns TynA-FeaR system. As to the kind of experiment: microbe, parasite or virus in culture. As to conditions: for EC50: Escherichia coli, read-out: KA (half maximal constant). As for the experimental part: To develop sensors for aromatic amines, the TynA-FeaR system was first characterized in EcN. A sensor plasmid was constructed, which consisted of constitutively expressed TynA and FeaR from E. coli MG1655, and a reporter plasmid, which consisted of GFP under the control of PtynA (see e.g., FIG. 3B). […] Next, the sensitivity and selectivity to different ligands was characterized.
For fluorescence-based quantification, single colonies were transferred to 5 mL LB medium (VWR, Radnor, Pa., USA) in 14 mL round bottom tubes and incubated overnight at 250 rpm and 37° C. Unless otherwise specified, experimental cultures were prepared by diluting overnight cultures 100× into 0.6 mL M9 minimal medium supplemented with 1 mM MgSO4, […]), and 2% w/v glycerol as well as the respective ligands (DA, PEA, Tyra, and Trypta) in 2 mL 96-deep well plates. Cultures were grown for 24 h at 37° C. and 250 rpm. After 5 h and 24 h of incubation, samples were obtained from the cultures for flow cytometry analysis.
Flow cytometry was performed as previously described. Culture samples were collected and diluted to a final OD600 of ˜0.005-0.01 in […] filtered phosphate-buffered saline supplemented with 2 mg/ml kanamycin in 96-well assay microplates (U-bottom, REF-353910 from BD Biosciences, San Jose, Calif., USA). The fluorescence of the samples was measured using a Millipore Guava EasyCyte High Throughput flow cytometer with a 488 nm excitation laser and 512/18 nm emission filter. Cytometry data was gated by forward and side scatter. FlowJo (TreeStar Inc.) was used to obtain the arithmetic mean of the fluorescence distribution. The averages of the arithmetic means were calculated from three biological replicates. The average fluorescence of the non-fluorescent wild-type cell was subtracted from each sample to obtain the final fluorescence (au) values (Equation 2). To obtain the relative fluorescence in FIG. 6A-FIG. 6C, fluorescence values for each variant were normalized to the fluorescence of the wild-type sensor using Equation 3.
The Hill equation (Equations 4 and 5) was used to fit lines to the fluorescence data. The model was fit to the experimentally collected data by minimizing the root mean square error (RMSE; Equation 6).

The subject of data set [3] is wild-type TynA and A81L FeaR. As to the kind of experiment: microbe, parasite or virus in culture. Particulars: A81L FeaR; 5 h; FIG. 24. Format: cell-based, E. coli MG1655. As for the experimental part: as §2
Data set [4] deals with wild-type TynA with A81P FeaR. The experiment in a line: microbe, parasite or virus in culture. Format: cell-based, E. coli MG1655. As to conditions: A81P FeaR; 5 h and 24 h; FIG. 25A-B. Here is the method: as §2
Data set [5] relates to wild-type TynA with M83Q FeaR. Format: cell-based, E. coli MG1655. Particulars: 24 h, FIG. 28A. As for the experimental part: as §2
The test system of data set [6] is G494S TynA with wild-type FeaR. Format: cell-based, E. coli MG1655. Particulars: G494S TynA, wild-type FeaR; 5 h and 24 h; FIG. 18A-B. As for the experimental part: as §2
For another data set, the system named is G494S TynA and A81S FeaR. Type of data set: cell-based, E. coli MG1655. Particulars: G494S TynA and A81S FeaR; 5 h and 24 h; FIG. 23A-B. Here is the method:
as §2

Data set [7] relates to wild-type TynA with L108T FeaR. Type of data set: cell-based, E. coli MG1655. As to conditions: 24 h, FIG. 28B. As for the experimental part: as §2
In data set [8] the test system is G415H TynA with wild-type FeaR. Format: cell-based, E. coli MG1655. Particulars: G415H TynA + wild-type FeaR, pCX008, pCX015. Here is the method: as §2
Data set [9] concerns wild-type TynA with W110S FeaR. Format: cell-based, E. coli MG1655. As to conditions: 24 h, FIG. 28C. Here is the method: as §2
Data set [10] deals with wild-type TynA with A81T FeaR. Format: cell-based, E. coli MG1655. As to conditions: wild-type TynA; 1 mM, 24 h; FIG. 21. As for the experimental part: as §2
Data set [11] concerns G494S TynA with A81T FeaR. Format: cell-based, E. coli MG1655. Particulars: G494S*; 5 h; FIG. 17A. As for the experimental part:
as §2

The subject of data set [12] is wild-type TynA with W110C FeaR. Format: cell-based, E. coli MG1655. Particulars: 24 h, FIG. 28D. As for the experimental part: as §2
Data set [13] concerns TynA-KP with FeaR-KA I109N. The experiment in a line: GFP fluorescence from PtynA-MG with TynA-KP and FeaR-KA I109N. Type of data set: cell-based, Klebsiella aerogenes. The text has this: FIG. 32. […] Sensor system with PtynA-MG, TynA-KP and FeaR-KA was chosen as the wild type (WT) for further directed evolution. TynA-KP was employed to reduce the possible interference from DA during evolution processes. Values and error bars are the average and standard deviation of biological triplicate, respectively.
FIG. 33A-FIG. 33B. […] The expression of PtynA-MG was regulated by the TynA-KP with FeaR-KA I109N mutant. Points represent experimental data while lines represent the fitted curves. […] Values and error bars are the average and standard deviation of biological triplicate, respectively.

[14] abbreviates: wild-type TynA and FeaR, pCX008, pHJY022, FIG. 3D, 24 h induction.
Setting [15] is: wild-type TynA and FeaR, pCX008, pHJY022, FIG. 14, 5 h induction.
[16] abbreviates: wild-type TynA + M83Q FeaR, pCX008, pCX083.
The mark [17] stands for this setting: wild-type TynA + L108T FeaR, pCX008, pCX099.
Setting [18] is: wild-type TynA + W110S FeaR, pCX008, pCX116.
Where [19] appears, read: wild-type TynA + W110C FeaR, pCX008, pCX117.

Like-named read-outs stand apart in the source and are kept apart here.

Regarding `N[C@@H](Cc1c[nH]c2ccc(O)cc12)C(=O)O` [5-HTP, 5-hydroxytryptophan], the fold repression entry on TrpR variant O1 is reported as “about 15 fold”; at TrpR variant OD, “about 7 fold”. The “fold repression of GFP expression” value on WT TrpR was found to be 20 fold.
On the same counts, the results for `N[C@@H](Cc1c[nH]c2ccccc12)C(=O)O` [Trp, tryptophan] are “about 60 fold”, “about 5 fold” and 120 fold.
Turning to `NCCc1ccc(O)cc1` [Tyramine, tyramine], the Concentration in data set [1] is 0.12 mM. Also, the Fmax worked out at 158 in data set [2]; 311 with TynA-FeaR system (setting [15]); 55 in [5] (setting [16]); 78 in data set [7] (setting [17]); 226 in data set [8] (FIG. 4D, 24 h); 152 in data set [8] (FIG. 17B, 5 h). Also, the Fmax in data set [9] (setting [18]) was determined as 127; in data set [12] (setting [19]) it was 148. Besides, the Fmin stood at 1.5 in data set [2]; 4.4 with TynA-FeaR system (setting [14]); 10.6 in the data set with TynA-FeaR system (setting [15]); 0.4 in data set [5] (setting [16]); 1.8 in data set [7] (setting [17]); 0 in [8] (FIG. 4D, 24 h). Moreover, the Fmin in data set [8] (FIG. 17B, 5 h) was determined as 0; in data set [9] (setting [18]), 1.5; in data set [12] (setting [19]), 0.9. The “n (Hill coefficient)” value was determined as 12 in data set [2]; 5 in the data set on TynA-FeaR system (setting [14]); 1.6 with TynA-FeaR system (setting [15]); 8.4 in data set [5] (setting [16]); 1.6 in [7] (setting [17]); 0.9 in data set [8] (FIG. 4D, 24 h). The “n (Hill coefficient)” value in data set [8] (FIG. 17B, 5 h) is listed as 0.8; in data set [9] (setting [18]), 9.8; in data set [12] (setting [19]) it was 9.7. Further, the EC50 with TynA-FeaR system (5 h) came to 37 µM; in the data set on TynA-FeaR system (24 h), 77 µM. Moreover, the response result in data set [3] was “lack of response”; in [4], “lack of response”; in [5] (M83Q FeaR), “lack of response”; in data set [6], “lack of response”; in the data set on G494S TynA and A81S FeaR, “lack of response”; in data set [7] (L108T FeaR), “lack of response”. Besides, the response entry was “lack of response” in data set [9] (W110S FeaR); “lack of response” in data set [11]; “lack of response” in data set [12] (W110C FeaR); “lack of response” in data set [13] (FeaR-KA I109N, 5 h and 24 h, FIG. 33A-B). In addition, the “effect of the A81T FeaR mutation on the response of the sensor” value in data set [10] is reported as “insignificant impact”. Further, the induction of fluorescence result in [13] (I109N variant, 0.5 mM, 24 h, FIG. 32) is “not”.

The values above are taken from patent US20220372585A1, “Sensors for Aromatic Compounds and Methods of Making and Using Same” (Washington University, priority 2021, published 2022).
